Experimental findings from ChEMBL document CHEMBL2016462, “Inhibitors of Ketohexokinase: Discovery of Pyrimidinopyrimidines with Specific Substitution that Complements the ATP-Binding Site” (ACS Med Chem Lett, 2011) are described below.

SMILES strings stand for the structures. pIC50: −log10 of the molar value.

The target of experiment [1] is T1, Ketohexokinase (Homo sapiens, UniProt P50053).
T1 sequence (P50053 whole entry): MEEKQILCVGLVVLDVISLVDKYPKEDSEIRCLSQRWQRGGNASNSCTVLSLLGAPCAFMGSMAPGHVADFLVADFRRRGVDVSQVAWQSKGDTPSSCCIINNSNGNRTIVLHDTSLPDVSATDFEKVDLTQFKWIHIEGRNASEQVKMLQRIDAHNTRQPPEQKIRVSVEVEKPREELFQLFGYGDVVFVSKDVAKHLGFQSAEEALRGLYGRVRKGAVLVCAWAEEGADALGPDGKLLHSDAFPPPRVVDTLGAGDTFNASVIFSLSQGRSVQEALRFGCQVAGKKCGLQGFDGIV
The experiment in a line: Inhibition of human ketohexokinase isoform C expressed in Escherichia coli BL21 (DE3) cells using D-fructose as substrate after 12 to 15 mins by fluorescence polarization assay. In general terms: Polarisation of emitted light reports the rotation of a fluorescent probe.

The target in experiment [2] is T1, Ketohexokinase. The experiment can be described thus: Inhibition of ketokinase isoform C in human HepG2 cells assessed as levels of fructose-1-phosphate preincubated for 30 mins followed by substrate addition measured after 3 hrs by LC-MS analysis. It counts as cell-based.

As a reminder, the pIC50 is the negative decadic logarithm of the IC50, by convention in mol/L. For `CNc1ncnc2c(Nc3ccccc3C)nc(N3CCNCC3)nc12`, the negative-log IC50 (pIC50) in experiment [1] is 6.40.

`Cc1ccccc1Nc1nc(N2CCNCC2)nc2c(NCC3CC3)ncnc12`: the pIC50 in experiment [2] was 5.62.

`c1ccc(Nc2nc(N3CCNCC3)nc3c(NCC4CC4)ncnc23)cc1`: the negative-log IC50 (pIC50) in experiment [1] is 5.49.

With `Cc1cccc(Nc2nc(N3CCNCC3)nc3c(NCC4CC4)ncnc23)c1`, the pIC50 in experiment [1] is 5.55.

Molecule `COc1ccccc1Nc1nc(N2CCNCC2)nc2c(NCC3CC3)ncnc12` gave a pIC50 in experiment [1] of 7.00.

Take `CCOc1ccccc1Nc1nc(N2CCNCC2)nc2c(NCC3CC3)ncnc12`: the negative-log IC50 (pIC50) in experiment [1] is 6.70.

`CSc1cccc(Nc2nc(N3CCNCC3)nc3c(NCC4CC4)ncnc23)c1` gave a pIC50 in experiment [1] of 5.70.

In experiment [1], `CSc1ccc(Nc2nc(N3CCNCC3)nc3c(NCC4CC4)ncnc23)cc1` showed a pIC50 of less than 5.05.

In turn, `CS(=O)(=O)c1ccccc1Nc1nc(N2CCNCC2)nc2c(NCC3CC3)ncnc12` had a pIC50 in experiment [1] of less than 5.05.

Turning to `CCSc1ccccc1Nc1nc(N2CCNCC2)nc2c(NCC3CC3)ncnc12`, the pIC50 in experiment [1] was less than 5.05.

`FC(F)(F)Sc1ccccc1Nc1nc(N2CCNCC2)nc2c(NCC3CC3)ncnc12` gave a pIC50 in experiment [1] of 5.52.

For `CCc1ccccc1Nc1nc(N2CCNCC2)nc2c(NCC3CC3)ncnc12`, the pIC50 in experiment [1] is 6.89.

As for `CC(C)c1ccccc1Nc1nc(N2CCNCC2)nc2c(NCC3CC3)ncnc12`, the pIC50 in experiment [1] is 5.30.

Take `c1ccc(C2CC2)c(Nc2nc(N3CCNCC3)nc3c(NCC4CC4)ncnc23)c1`: the negative logarithm of the IC50 (pIC50) in experiment [1] was 6.42.

In experiment [1], `Fc1ccccc1Nc1nc(N2CCNCC2)nc2c(NCC3CC3)ncnc12` gave a pIC50 of 5.82.

In experiment [1], `Clc1ccccc1Nc1nc(N2CCNCC2)nc2c(NCC3CC3)ncnc12` gave a negative-log IC50 (pIC50) of 6.27.

`Brc1ccccc1Nc1nc(N2CCNCC2)nc2c(NCC3CC3)ncnc12` showed a negative-log IC50 (pIC50) in experiment [1] of 6.77.

Consider `c1nc(NCC2CC2)c2nc(N3CCNCC3)nc(NC3CC3)c2n1`, for which the pIC50 in experiment [1] was less than 5.05.

For the molecule `c1nc(NCC2CC2)c2nc(N3CCNCC3)nc(NC3CCCCC3)c2n1`, in experiment [1], the negative-log IC50 (pIC50) is less than 5.05.

In experiment [1], `CCCNc1ncnc2c(Nc3ccccc3C)nc(N3CCNCC3)nc12` had a pIC50 of 6.40.

Consider `CCCCCCNc1ncnc2c(Nc3ccccc3C)nc(N3CCNCC3)nc12`, for which the pIC50 in experiment [1] was 5.80.

On to `Cc1ccccc1Nc1nc(N2CCNCC2)nc2c(NC3CCCCC3)ncnc12`, for which the pIC50 in experiment [1] is 5.64.

In experiment [1], `CCN(CC)c1ncnc2c(Nc3ccccc3C)nc(N3CCNCC3)nc12` gave a pIC50 of 5.77.

In the case of `C#CCNc1ncnc2c(Nc3ccccc3C)nc(N3CCNCC3)nc12`, the negative-log IC50 (pIC50) in experiment [1] was 6.52.

In experiment [1], `Cc1ccccc1Nc1nc(N2CCNCC2)nc2c(NCc3ccccc3)ncnc12` had a negative-log IC50 (pIC50) of 6.40.

`Cc1ccccc1Nc1nc(N2CCNCC2)nc2c(NCc3cccs3)ncnc12`: the negative logarithm of the IC50 (pIC50) in experiment [1] is 6.52.

`Cc1ccccc1Nc1nc(N2CCNCC2)nc2c(NCc3nccs3)ncnc12`: in experiment [1], the negative logarithm of the IC50 (pIC50) is 7.22.

Take `Cc1ccccc1Nc1nc(N2CCCNCC2)nc2c(NCC3CC3)ncnc12`: the negative logarithm of the IC50 (pIC50) in experiment [1] is 6.52.

In experiment [1], `Cc1ccccc1Nc1nc(N2CCN(C)CC2)nc2c(NCC3CC3)ncnc12` had a pIC50 of 5.82.

In turn, `Cc1ccccc1Nc1nc(N2CCOCC2)nc2c(NCC3CC3)ncnc12` had a pIC50 in experiment [1] of less than 5.15.

In experiment [1], `Cc1ccccc1Nc1nc(N2CCC(CN)CC2)nc2c(NCC3CC3)ncnc12` had a pIC50 of 7.15.

The molecule `Cc1ccccc1Nc1nc(N2CCC(N)CC2)nc2c(NCC3CC3)ncnc12` gave a negative logarithm of the IC50 (pIC50) in experiment [1] of 6.70.

`Cc1ccccc1Nc1nc(NC2CCNCC2)nc2c(NCC3CC3)ncnc12` showed a negative-log IC50 (pIC50) in experiment [1] of 6.15.

`CSc1ccccc1Nc1nc(N2CCNCC2)nc2c(NCC3CCC3)ncnc12` gave a pIC50 in experiment [1] of 7.74.

In turn, `CSc1ccccc1Nc1nc(N2CCNCC2)nc2c(NCCC3CC3)ncnc12` showed a negative logarithm of the IC50 (pIC50) in experiment [1] of 7.30.

As for `COCCNc1ncnc2c(Nc3ccccc3SC)nc(N3CCNCC3)nc12`, the figures for the pIC50 in experiment [1] and in experiment [2] were 8.15 and 6.85, respectively.

For `CSc1ccccc1Nc1nc(N2CCNCC2)nc2c(NCc3cccs3)ncnc12`, the pIC50 in experiment [1] was 7.52.

As for `CSc1ccccc1Nc1nc(N2CCNCC2)nc2c(NCc3nccs3)ncnc12`, the results for the pIC50 in experiment [1] and in experiment [2] were 7.80 and 6.57, respectively.

As for `CSc1ccccc1Nc1nc(N2CCNCC2)nc2c(NCc3ccccn3)ncnc12`, the pIC50 in experiment [1] is 8.01; in experiment [2] it was 6.57.

For the molecule `CSc1ccccc1Nc1nc(N2CCNCC2)nc2c(N)ncnc12`, the pIC50 in experiment [1] was 8.15; in experiment [2], 7.11.

For the molecule `CSc1ccccc1Nc1nc(N2CCC[C@@H](N)C2)nc2c(NCC3CC3)ncnc12`, the negative-log IC50 (pIC50) in experiment [1] was 7.74.

`CSc1ccccc1Nc1nc(N2CCC[C@H](N)C2)nc2c(NCC3CC3)ncnc12` gave a pIC50 in experiment [1] of 7.64.

Molecule `CSc1ccccc1Nc1nc(N2CCC(CN)CC2)nc2c(NCC3CC3)ncnc12` had a negative-log IC50 (pIC50) in experiment [1] of 8.00.

Turning to `CSc1ccccc1Nc1nc(N2CC(CN)C2)nc2c(NCC3CC3)ncnc12`, the pIC50 was 7.52 in experiment [1] and 6.23 in experiment [2].

For `CSc1ccccc1Nc1nc(N2CC3(CNC3)C2)nc2c(NCC3CC3)ncnc12`, the pIC50 in experiment [2] was 6.44.

In experiment [1], `CNCCN(C)c1nc(Nc2ccccc2SC)c2ncnc(NCC3CC3)c2n1` showed a pIC50 of 6.89.

In turn, `CSc1ccccc1Nc1nc(N2CCC(CN(C)C)CC2)nc2c(NCC3CC3)ncnc12` showed a negative-log IC50 (pIC50) in experiment [1] of 6.85.

The molecule `CSc1ccccc1Nc1nc(N2CCN(C)CC2)nc2c(NCC3CC3)ncnc12` showed a pIC50 in experiment [1] of 6.96.
